What was measured:
Rat SERT = target: T1, Rat SERT (Rattus norvegicus, UniProt P31652); assay: Rat brain SERT binding ([3H]-citalopram displacement); conditions: rat brain membranes without cerebellum, 0.6 nM [3H]-citalopram, 60 min at 25° C.; read-out: Rat SERT Ki
T1 construct: A rat brain without cerebellum (Zivic Laboratories, Inc.—Pittsburgh, Pa.) was homogenized; tissue Zivic Laboratories, Inc; host or cells: rat brain without cerebellum, membranes
Protocol: The supernatant was removed and re-centrifuged at 15,000 rpm for 30 min. […] Membranes were incubated with 0.6 nM [^3H]-Citalopram plus/minus test compounds for 60 min at 25° C. and harvested by rapid filtration over GF/C glass fiber filters (pretreated with 0.3% polyethylenimine) followed by four washes with ice-cold buffer.

human H3 receptor = target: T2, human H3 receptor (Homo sapiens, UniProt Q9Y5N1); assay: H3 receptor binding (N-[3H]-α-methylhistamine displacement); conditions: membranes of SK-N-MC cells expressing cloned human H3 receptor, 0.8 nM N-[3H]-α-methylhistamine, 60 min at 25° C.
T2 construct: expressed in transfected cells

human SERT = target: T3, human SERT (Homo sapiens, UniProt P31645); assay: Human SERT binding (3H-citalopram displacement); conditions: HEK293 membranes expressing human SERT, rt 1 h
T3 construct: expressed in transfected cells; host or cells: HEK293 membranes
Protocol: Homogenized HEK293 (Human Embryonic Kidney) membranes expressing the human SERT were incubated with ^3H-citalopram (SERT) at rt for 1 h in 50 mM Tris, 120 mM NaCl, 5 mM KCl (pH 7.4). […] The membranes were washed and the radioactivity was counted as above.

T3 sequence (P31645 whole entry): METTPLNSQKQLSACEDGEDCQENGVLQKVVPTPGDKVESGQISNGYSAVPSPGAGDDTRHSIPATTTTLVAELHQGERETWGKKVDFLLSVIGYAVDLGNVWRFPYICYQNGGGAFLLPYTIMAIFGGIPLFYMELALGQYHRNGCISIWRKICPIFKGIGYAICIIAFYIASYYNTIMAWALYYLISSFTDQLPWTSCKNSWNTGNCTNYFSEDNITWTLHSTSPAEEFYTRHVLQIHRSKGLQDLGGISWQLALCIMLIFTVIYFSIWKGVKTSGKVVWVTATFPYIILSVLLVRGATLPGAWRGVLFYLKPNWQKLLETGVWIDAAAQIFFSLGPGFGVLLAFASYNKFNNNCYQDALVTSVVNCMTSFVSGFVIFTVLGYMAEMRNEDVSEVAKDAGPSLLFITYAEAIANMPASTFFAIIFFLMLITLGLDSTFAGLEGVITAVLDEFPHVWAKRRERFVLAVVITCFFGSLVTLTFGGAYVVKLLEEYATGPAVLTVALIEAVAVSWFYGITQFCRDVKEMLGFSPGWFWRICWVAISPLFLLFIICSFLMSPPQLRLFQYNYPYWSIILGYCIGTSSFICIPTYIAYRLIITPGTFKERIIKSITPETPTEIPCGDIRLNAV
T1 sequence (P31652 whole entry): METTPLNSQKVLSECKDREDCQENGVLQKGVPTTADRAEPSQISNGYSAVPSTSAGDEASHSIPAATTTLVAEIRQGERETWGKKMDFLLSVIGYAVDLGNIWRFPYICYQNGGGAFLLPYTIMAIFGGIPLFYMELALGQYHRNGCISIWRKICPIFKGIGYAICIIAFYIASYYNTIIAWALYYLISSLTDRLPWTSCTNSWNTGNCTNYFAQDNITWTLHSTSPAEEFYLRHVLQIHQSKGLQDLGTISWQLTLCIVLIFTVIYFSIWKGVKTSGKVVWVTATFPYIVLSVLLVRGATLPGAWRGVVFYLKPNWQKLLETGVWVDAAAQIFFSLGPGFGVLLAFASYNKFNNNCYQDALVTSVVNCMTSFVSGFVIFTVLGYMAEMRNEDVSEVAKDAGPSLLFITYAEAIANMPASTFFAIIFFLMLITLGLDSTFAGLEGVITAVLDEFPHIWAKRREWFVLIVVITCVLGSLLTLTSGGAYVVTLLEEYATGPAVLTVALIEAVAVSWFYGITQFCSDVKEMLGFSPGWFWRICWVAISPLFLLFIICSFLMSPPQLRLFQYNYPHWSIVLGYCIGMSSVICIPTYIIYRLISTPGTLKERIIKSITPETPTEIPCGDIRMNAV
T2 sequence (Q9Y5N1 whole entry): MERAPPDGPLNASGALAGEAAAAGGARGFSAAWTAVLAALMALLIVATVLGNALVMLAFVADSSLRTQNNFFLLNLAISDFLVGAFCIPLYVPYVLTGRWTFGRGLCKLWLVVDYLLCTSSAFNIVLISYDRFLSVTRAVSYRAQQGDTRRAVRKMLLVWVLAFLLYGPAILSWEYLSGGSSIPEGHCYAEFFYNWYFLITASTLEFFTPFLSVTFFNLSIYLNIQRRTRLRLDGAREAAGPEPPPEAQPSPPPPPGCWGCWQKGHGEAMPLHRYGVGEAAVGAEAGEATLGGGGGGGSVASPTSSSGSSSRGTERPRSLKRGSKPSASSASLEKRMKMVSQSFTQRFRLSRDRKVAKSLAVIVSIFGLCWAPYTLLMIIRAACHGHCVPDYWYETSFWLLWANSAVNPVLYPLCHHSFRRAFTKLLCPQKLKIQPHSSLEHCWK

| Structure (SMILES) | Ki (Rat SERT) | Ki (human H3 receptor) | Ki (human SERT) |
| --- | --- | --- | --- |
| CCCN1CCC(COc2ccc3c(c2)CN(C)CC3c2ccc(SC)cc2)CC1 (stereo not drawn) [Example 109, 2-Methyl-4-(4-methylsulfanyl-phenyl)-7-(1-propyl-piperidin-4-ylmethoxy)-1,2,3,4-tetrahydro-isoquinoline] | 10 nM | 8 nM | 3 nM |
| COc1ccc(C2CN(C)Cc3cc(OCC4CCN(CC(C)C)CC4)ccc32)cc1 (stereo not drawn) [Example 110, 7-(1-Isobutyl-piperidin-4-ylmethoxy)-4-(4-methoxy-phenyl)-2-methyl-1,2,3,4-tetrahydro-isoquinoline] | 4 nM | 5 nM | 5 nM |
| CCCN1CCC(COc2ccc3c(c2)CN(C)CC3c2ccc(OC)c(F)c2)CC1 (stereo not drawn) [Example 112, 4-(3-Fluoro-4-methoxy-phenyl)-2-methyl-7-(1-propyl-piperidin-4-ylmethoxy)-1,2,3,4-tetrahydro-isoquinoline] | 5 nM | 9 nM | 6 nM |
| COc1ccc(C2CN(C)Cc3cc(OCC4CCN(CCF)CC4)ccc32)cc1 (stereo not drawn) [Example 116, 7-[1-(2-Fluoro-ethyl)-piperidin-4-ylmethoxy]-4-(4-methoxy-phenyl)-2-methyl-1,2,3,4-tetrahydro-isoquinoline] | 6 nM | 8 nM | 7 nM |
| COc1ccc(C2CN(C)Cc3cc(OC4CCN(C(C)C)CC4)ccc32)cc1 (stereo not drawn) [Example 117, 7-(1-Isopropyl-piperidin-4-yloxy)-4-(4-methoxy-phenyl)-2-methyl-1,2,3,4-tetrahydro-isoquinoline] | 9 nM | 1 nM | 10 nM |
| CSc1ccc(C2CN(C)Cc3cc(OC4CCN(C(C)C)CC4)ccc32)cc1 (stereo not drawn) [Example 118, 7-(1-Isopropyl-piperidin-4-yloxy)-2-methyl-4-(4-methylsulfanyl-phenyl)-1,2,3,4-tetrahydro-isoquinoline] | 8 nM | 1 nM | 4 nM |
| COc1ccc(C2CN(C)Cc3cc(OC4CCN(C5CCOCC5)CC4)ccc32)cc1 (stereo not drawn) [Example 121, 4-(4-Methoxy-phenyl)-2-methyl-7-[1-(tetrahydro-pyran-4-yl)-piperidin-4-yloxy]-1,2,3,4-tetrahydro-isoquinoline] | 10 nM | 2 nM | 6 nM |
| CN1Cc2cc(OCCCN3CCC(F)CC3)ccc2C(c2ccccc2)C1 (stereo not drawn) [Example 124, 7-[3-(4-Fluoro-piperidin-1-yl)-propoxy]-2-methyl-4-phenyl-1,2,3,4-tetrahydro-isoquinoline] | 13 nM | 3 nM | 56 nM |
| Cc1ccc(C2CN(C)Cc3cc(OCCCN4CCC(F)CC4)ccc32)cc1 (stereo not drawn) [Example 126, 7-[3-(4-Fluoro-piperidin-1-yl)-propoxy]-2-methyl-4-p-tolyl-1,2,3,4-tetrahydro-isoquinoline] | 3 nM | 8 nM | 15 nM |
| COc1ccc(C2CN(C)Cc3cc(OCCCN4CCC(F)(F)C4)ccc32)cc1 (stereo not drawn) [Example 129, 7-[3-(3,3-Difluoro-pyrrolidin-1-yl)-propoxy]-4-(4-methoxy-phenyl)-2-methyl-1,2,3,4-tetrahydro-isoquinoline] | 7 nM | 14 nM | 5 nM |
| CN1Cc2cc(OCCCN3CCC(F)CC3)ccc2C(c2ccc(N3CCOCC3)cc2)C1 (stereo not drawn) [Example 134, 7-[3-(4-Fluoro-piperidin-1-yl)-propoxy]-2-methyl-4-(4-morpholin-4-yl-phenyl)-1,2,3,4-tetrahydro-isoquinoline] | 28 nM | 2 nM | 30 nM |
| C[C@H]1COCCN1CCCOc1ccc2c(c1)CN(C)CC2c1ccc(C#N)cc1 (stereo partly drawn) [Example 135, 4-{2-Methyl-7-[3-(3S-methyl-morpholin-4-yl)-propoxy]-1,2,3,4-tetrahydro-isoquinolin-4-yl}-benzonitrile] | 27 nM | 2 nM | 15 nM |
| CN1Cc2cc(OCCCN3CCC(F)CC3)ccc2C(c2ccc(C#N)cc2)C1 (stereo not drawn) [Example 136, 4-{7-[3-(4-Fluoro-piperidin-1-yl)-propoxy]-2-methyl-1,2,3,4-tetrahydro-isoquinolin-4-yl}-benzonitrile] | 9 nM | 4 nM | 20 nM |
| CCOc1ccc(C2CN(C)Cc3cc(OCCCN4CCC(F)CC4)ccc32)cc1 (stereo not drawn) [Example 145, 4-(4-Ethoxy-phenyl)-7-[3-(4-fluoro-piperidin-1-yl)-propoxy]-2-methyl-1,2,3,4-tetrahydro-isoquinoline] | 3 nM | 5 nM | 5 nM |
| COc1ccc(C2CN(C)Cc3cc(OC4CCNCC4)ccc32)cc1 (stereo not drawn) [Example 148, 4-(4-Methoxy-phenyl)-2-methyl-7-(piperidin-4-yloxy)-1,2,3,4-tetrahydro-isoquinoline] | 3 nM | 262 nM | 5 nM |
| COc1ccc(C2CN(C)Cc3cc(OC4CCN(CCF)CC4)ccc32)cc1 (stereo not drawn) [Example 152, 7-[1-(2-Fluoro-ethyl)-piperidin-4-yloxy]-4-(4-methoxy-phenyl)-2-methyl-1,2,3,4-tetrahydro-isoquinoline] | 6 nM | 5 nM | 11 nM |
| CSc1ccc(C2CN(C)Cc3cc(OC4CCN(CCF)CC4)ccc32)cc1 (stereo not drawn) [Example 179, 7-[1-(2-Fluoro-ethyl)-piperidin-4-yloxy]-2-methyl-4-(4-methylsulfanyl-phenyl)-1,2,3,4-tetrahydro-isoquinoline] | 3 nM | 5 nM | 4 nM |
| CN1Cc2cc(OCCCN3CCC(F)CC3)ccc2C(c2ccc(Sc3ncc[nH]3)nc2)C1 (stereo not drawn) [Example 195, 7-[3-(4-Fluoro-piperidin-1-yl)-propoxy]-4-[6-(1H-imidazol-2-ylsulfanyl)-pyridin-3-yl]-2-methyl-1,2,3,4-tetrahydro-isoquinoline] | 8 nM | 3 nM | 34 nM |
| CCN1CCN(CCCOc2ccc3c(c2)CN(C)CC3c2ccc(OC)cc2)CC1 (stereo not drawn) [Example 198, 7-[3-(4-Ethyl-piperazin-1-yl)-propoxy]-4-(4-methoxy-phenyl)-2-methyl-1,2,3,4-tetrahydro-isoquinoline] | 2 nM | 10 nM | 2 nM |
| COc1ccc(C2CN(C)Cc3cc(OCCCN4CCN(C(C)C)CC4)ccc32)cc1 (stereo not drawn) [Example 199, 7-[3-(4-Isopropyl-piperazin-1-yl)-propoxy]-4-(4-methoxy-phenyl)-2-methyl-1,2,3,4-tetrahydro-isoquinoline] | 2 nM | 8 nM | 2 nM |
| COc1ccc(C2CN(C)Cc3cc(OCCCN4CCN(c5ccncc5)CC4)ccc32)cc1 (stereo not drawn) [Example 204, 4-(4-Methoxy-phenyl)-2-methyl-7-[3-(4-pyridin-4-yl-piperazin-1-yl)-propoxy]-1,2,3,4-tetrahydro-isoquinoline] | 10 nM | 2 nM | 5 nM |
| CSc1ccc(C2CN(C)Cc3cc(OCCCN4CCOC[C@@H]4C)ccc32)cc1 (stereo partly drawn) [Example 215, 2-Methyl-7-[3-(3S-methyl-morpholin-4-yl)-propoxy]-4-(4-methylsulfanyl-phenyl)-1,2,3,4-tetrahydro-isoquinoline] | 1 nM | 5 nM | 5 nM |
| CSc1ccc(C2CN(C)Cc3cc(OCCCN4CCC(F)(F)CC4)ccc32)cc1 (stereo not drawn) [Example 216, 7-[3-(4,4-Difluoro-piperidin-1-yl)-propoxy]-2-methyl-4-(4-methylsulfanyl-phenyl)-1,2,3,4-tetrahydro-isoquinoline] | 4 nM | 22 nM | 8 nM |
| COc1ccc(C2CN(C)Cc3cc(OCCCN4CCOC[C@@H]4C)ccc32)c(F)c1 (stereo partly drawn) [Example 220, 4-(2-Fluoro-4-methoxy-phenyl)-2-methyl-7-[3-(3S-methyl-morpholin-4-yl)-propoxy]-1,2,3,4-tetrahydro-isoquinoline] | 4 nM | 6 nM | 12 nM |
| CN1Cc2cc(OCCCN3CCCCC3)ccc2C(c2ccc(OC(F)(F)F)cc2)C1 (stereo not drawn) [Example 222, 2-Methyl-7-(3-piperidin-1-yl-propoxy)-4-(4-trifluoromethoxy-phenyl)-1,2,3,4-tetrahydro-isoquinoline] | 30 nM | 30 nM | 18 nM |
| CSc1ccc(C2CN(C)Cc3cc(OC4CCN(C)CC4)ccc32)cc1 (stereo not drawn) [Example 243, 2-Methyl-7-(1-methyl-piperidin-4-yloxy)-4-(4-methylsulfanyl-phenyl)-1,2,3,4-tetrahydro-isoquinoline] | 5 nM | 22 nM | 6 nM |
| CSc1ccc(C2CN(C)Cc3cc(OC4CCN(C5CC5)CC4)ccc32)cc1 (stereo not drawn) [Example 247, 7-(1-Cyclopropyl-piperidin-4-yloxy)-2-methyl-4-(4-methylsulfanyl-phenyl)-1,2,3,4-tetrahydro-isoquinoline] | 5 nM | 2 nM | 7 nM |
| COc1ccc(C2CN(C)Cc3cc(OCC4CN(C(C)C)CCO4)ccc32)cc1 (stereo not drawn) [Example 254, 7-(4-Isopropyl-morpholin-2-ylmethoxy)-4-(4-methoxy-phenyl)-2-methyl-1,2,3,4-tetrahydro-isoquinoline] | 9 nM | 9 nM | 7 nM |

Source: US20060194837A1, “Tetrahydroisoquinoline compounds” (priority 2004, published 2006)
